Where two headings read alike, the source gives them in different places.

One assay deals with T. cruzi DHFR (tcDHFR) (Trypanosoma cruzi, UniProt Q27793). Nature of the assay: biochemical. The note with it: Table 17; for Average DHFR selectivity (h/tc): hDHFR IC50/tcDHFR IC50; for IC50: pIC50 = -log10 IC50, at least three replicates, read-out: tcDHFR pIC50-DHFR primary assay (converted).
A further assay addresses T1, T. gondii DHFR (tgDHFR) (Toxoplasma gondii, UniProt Q07422).
T1 sequence (Q07422 1-610): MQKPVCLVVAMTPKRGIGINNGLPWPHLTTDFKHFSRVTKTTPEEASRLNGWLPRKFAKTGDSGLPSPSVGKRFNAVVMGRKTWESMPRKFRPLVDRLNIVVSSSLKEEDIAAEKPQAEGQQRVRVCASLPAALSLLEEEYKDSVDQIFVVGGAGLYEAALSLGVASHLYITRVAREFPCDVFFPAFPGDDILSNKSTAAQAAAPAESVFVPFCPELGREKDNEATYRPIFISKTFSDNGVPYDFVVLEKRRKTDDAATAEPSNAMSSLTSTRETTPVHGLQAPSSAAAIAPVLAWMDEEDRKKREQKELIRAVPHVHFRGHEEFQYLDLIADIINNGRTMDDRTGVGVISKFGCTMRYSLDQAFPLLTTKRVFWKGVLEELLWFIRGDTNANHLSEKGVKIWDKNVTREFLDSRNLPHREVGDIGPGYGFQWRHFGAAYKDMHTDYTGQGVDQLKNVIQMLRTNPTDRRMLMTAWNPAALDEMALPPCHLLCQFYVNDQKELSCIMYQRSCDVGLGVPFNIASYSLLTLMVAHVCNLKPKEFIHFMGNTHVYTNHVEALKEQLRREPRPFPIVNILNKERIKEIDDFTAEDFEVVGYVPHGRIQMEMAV
Nature of the assay: biochemical. The note with it: Table 16; for Average DHFR selectivity (h/tg): hDHFR IC50/tgDHFR IC50; for IC50: pIC50 = -log10 IC50, at least three replicates, read-out: tgDHFR pIC50-DHFR primary assay (converted).

Another assay deals with T2, hDHFR (Homo sapiens, UniProt P00374).
T2 sequence (P00374 1-187): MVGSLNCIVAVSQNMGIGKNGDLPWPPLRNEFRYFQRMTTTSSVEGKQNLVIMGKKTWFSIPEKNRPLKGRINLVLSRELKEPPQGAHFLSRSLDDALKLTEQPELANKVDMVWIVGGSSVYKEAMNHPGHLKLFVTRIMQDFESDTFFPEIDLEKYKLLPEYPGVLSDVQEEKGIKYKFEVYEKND
Type of assay: biochemical. As to conditions: pIC50 = -log10 IC50, at least three replicates, read-out: hDHFR pIC50-DHFR primary assay (converted).

Sequence of T. cruzi DHFR (tcDHFR) (Q27793 whole entry): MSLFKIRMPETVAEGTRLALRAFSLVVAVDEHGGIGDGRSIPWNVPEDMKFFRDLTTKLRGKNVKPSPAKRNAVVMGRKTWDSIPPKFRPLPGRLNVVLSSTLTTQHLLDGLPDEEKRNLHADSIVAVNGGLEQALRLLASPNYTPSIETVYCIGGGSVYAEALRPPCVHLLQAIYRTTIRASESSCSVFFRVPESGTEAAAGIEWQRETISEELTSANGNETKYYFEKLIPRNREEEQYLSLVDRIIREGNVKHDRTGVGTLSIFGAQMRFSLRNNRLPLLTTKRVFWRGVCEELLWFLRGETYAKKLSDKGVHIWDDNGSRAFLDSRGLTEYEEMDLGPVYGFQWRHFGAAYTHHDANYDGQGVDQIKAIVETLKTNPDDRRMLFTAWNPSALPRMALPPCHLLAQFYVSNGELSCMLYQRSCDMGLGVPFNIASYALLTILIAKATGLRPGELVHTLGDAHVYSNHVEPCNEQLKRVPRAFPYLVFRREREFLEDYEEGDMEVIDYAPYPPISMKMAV

With `Nc1ncc(N2CCN(c3ccnc(C(F)(F)F)c3)CC2)c(N)n1` [Compound 139, 5-(4-(2-(trifluoromethyl)pyridin-4-yl)piperazin-1-yl)pyrimidine-2,4-diamine], on T. cruzi DHFR (tcDHFR), the “Average DHFR selectivity (h/tc)” value is reported as 8.02. The IC50 on T. cruzi DHFR (tcDHFR) is 6.24 nM; on T. gondii DHFR (tgDHFR), 39.8 nM; at hDHFR (Table 16), 81.3 nM; on hDHFR (Table 17), 47.9 nM. Further, the “Average DHFR selectivity (h/tg)” value at T. gondii DHFR (tgDHFR) is on record as 2.03.
As to `Nc1ncc(N2CCN(c3cccc(Cl)n3)CC2)c(N)n1` [Compound 150, 5-(4-(6-chloropyridin-2-yl)piperazin-1-yl)pyrimidine-2,4-diamine], on T. cruzi DHFR (tcDHFR), the “Average DHFR selectivity (h/tc)” value stood at 59.955 and the IC50 was 10.8 nM. Further, the IC50 at hDHFR (Table 17) is 653 nM.
`Nc1ncc(N2CCN(c3cccc(OC4CCOCC4)c3)CC2)c(N)n1` [Compound 151, 5-(4-(3-((tetrahydro-2H-pyran-4-yl)oxy)phenyl)piperazin-1-yl)pyrimidine-2,4-diamine]: the “Average DHFR selectivity (h/tc)” value on T. cruzi DHFR (tcDHFR) was determined as 31.54. The IC50 on T. cruzi DHFR (tcDHFR) is 27.2 nM; on T. gondii DHFR (tgDHFR) it was 17 nM; on hDHFR (Table 16), 851 nM; at hDHFR (Table 17), 851 nM. Moreover, on T. gondii DHFR (tgDHFR), the “Average DHFR selectivity (h/tg)” value is given as 50.16.
Turning to `Nc1ncc(N2CCN(c3cccc(OC4CCOC4)c3)CC2)c(N)n1` (stereo not drawn) [Compound 152, 5-(4-(3-((tetrahydrofuran-3-yl)oxy)phenyl)piperazin-1-yl)pyrimidine-2,4-diamine], the “Average DHFR selectivity (h/tc)” value at T. cruzi DHFR (tcDHFR) is 45.785. Besides, the IC50 on T. cruzi DHFR (tcDHFR) was 25.4 nM; on T. gondii DHFR (tgDHFR), 23.4 nM; at hDHFR (Table 16), 1100 nM; on hDHFR (Table 17), 1110 nM. Also, at T. gondii DHFR (tgDHFR), the “Average DHFR selectivity (h/tg)” value is reported as 47.37.
With `Nc1ncc(N2CCN(c3ccc(F)nc3)CC2)c(N)n1` [Compound 156, 5-(4-(6-fluoropyridin-3-yl)piperazin-1-yl)pyrimidine-2,4-diamine], at T. cruzi DHFR (tcDHFR), the “Average DHFR selectivity (h/tc)” value worked out at 60.75 and the IC50 was 61.7 nM. Besides, the IC50 at hDHFR (Table 17) is 3720 nM.
As to `COc1ncc(-c2ccccc2N2CCN(c3cnc(N)nc3N)CC2)cn1` [Compound 157], on T. cruzi DHFR (tcDHFR), the “Average DHFR selectivity (h/tc)” value is recorded as 27.56. In addition, the IC50 was 184 nM on T. cruzi DHFR (tcDHFR), 871 nM at T. gondii DHFR (tgDHFR), 5010 nM at hDHFR (Table 16) and 5070 nM on hDHFR (Table 17). On T. gondii DHFR (tgDHFR), the “Average DHFR selectivity (h/tg)” value stood at 5.86.
`Nc1ncc(N2CCN(c3ccnc(-c4ccccc4)c3)CC2)c(N)n1` [Compound 166]: the “Average DHFR selectivity (h/tc)” value at T. cruzi DHFR (tcDHFR) was 13.88. For the same molecule, the IC50 on T. cruzi DHFR (tcDHFR) was 7.76 nM; on T. gondii DHFR (tgDHFR), 13.8 nM; on hDHFR (Table 16), 107 nM; at hDHFR (Table 17), 107 nM. Besides, the “Average DHFR selectivity (h/tg)” value on T. gondii DHFR (tgDHFR) turned out to be 7.72.
`Cc1ccc(-c2cc(N3CCN(c4cnc(N)nc4N)CC3)ccn2)cc1` [Compound 167]: the “Average DHFR selectivity (h/tc)” value at T. cruzi DHFR (tcDHFR) came to 20.1. Besides, the IC50 on T. cruzi DHFR (tcDHFR) was 8.04 nM; at T. gondii DHFR (tgDHFR) it was 11 nM; on hDHFR (Table 16) it was 158 nM; on hDHFR (Table 17) it was 158 nM. The “Average DHFR selectivity (h/tg)” value on T. gondii DHFR (tgDHFR) was found to be 14.56.
Regarding `Nc1ncc(N2CCN(c3cccc(C4CCCOC4)c3)CC2)c(N)n1` (stereo not drawn) [Compound 179], at T. cruzi DHFR (tcDHFR), the “Average DHFR selectivity (h/tc)” value turned out to be 17.495. Moreover, the IC50 at T. cruzi DHFR (tcDHFR) was 28.8 nM; on hDHFR (Table 17) it was 484 nM.
For `COc1ccc(N2CCN(c3cnc(N)nc3N)CC2)cn1` [Compound 188, 5-(4-(6-methoxypyridin-3-yl)piperazin-1-yl)pyrimidine-2,4-diamine], the “Average DHFR selectivity (h/tc)” value on T. cruzi DHFR (tcDHFR) was found to be 209.762. In addition, the figures for the IC50 at T. cruzi DHFR (tcDHFR) and at hDHFR (Table 17) were 14 nM and 2690 nM, respectively.
Take `Nc1ncc(N2CCN(c3ccc(C4=CCOCC4)cc3)CC2)c(N)n1` [Compound 191, 5-(4-(4-(3,6-dihydro-2H-pyran-4-yl)phenyl)piperazin-1-yl)pyrimidine-2,4-diamine]: the “Average DHFR selectivity (h/tc)” value on T. cruzi DHFR (tcDHFR) amounted to 25.16. For the same molecule, the IC50 at T. cruzi DHFR (tcDHFR) is 2.82 nM; on hDHFR (Table 17), 68.4 nM.

The values are drawn from US20200270233A1, “DHFR INHIBITORS, COMPOSITIONS, AND METHODS RELATED THERETO” (Vyera Pharmaceuticais LLC, priority 2017, published 2020).
